Measurements published in PubChem BioAssay (NCI).
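Following 48 hours of exposure in 96-well plates, responses at five concentrations were used to interpolate endpoints linearly. GI50: concentration for 50% inhibition of growth. TGI: total growth inhibition.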

Columns and labels:
Assay in all cases: growth of human tumour cells (NCI), 48 h
HCT-15 colon = tested on: HCT-15 colon
HOP-62 NSCLC = tested on: HOP-62 NSCLC
OVCAR-4 ovarian = tested on: OVCAR-4 ovarian
NCI-H522 lung = tested on: NCI-H522 lung
TK-10 renal = tested on: TK-10 renal
HL-60(TB) leukemia = tested on: HL-60(TB) leukemia
U251 CNS = tested on: U251 CNS
HCT-116 colon = tested on: HCT-116 colon
HCC-2998 colon = tested on: HCC-2998 colon
PC-3 prostate = tested on: PC-3 prostate
MDA-MB-435 = tested on: MDA-MB-435
COLO 205 colon = tested on: COLO 205 colon
MOLT-4 leukemia = tested on: MOLT-4 leukemia
RPMI-8226 leukemia = tested on: RPMI-8226 leukemia
IGROV1 ovarian = tested on: IGROV1 ovarian
T-47D breast = tested on: T-47D breast
MDA-MB-231 breast = tested on: MDA-MB-231 breast
BT-549 breast = tested on: BT-549 breast
DU-145 prostate = tested on: DU-145 prostate
SK-MEL-5 melanoma = tested on: SK-MEL-5 melanoma
SK-OV-3 ovarian = tested on: SK-OV-3 ovarian
786-0 renal = tested on: 786-0 renal
SF-539 CNS = tested on: SF-539 CNS
A498 renal = tested on: A498 renal
NCI-H460 lung = tested on: NCI-H460 lung
MALME-3M melanoma = tested on: MALME-3M melanoma
UACC-257 melanoma = tested on: UACC-257 melanoma
K-562 leukemia = tested on: K-562 leukemia
OVCAR-8 ovarian = tested on: OVCAR-8 ovarian
ACHN renal = tested on: ACHN renal
KM12 colon = tested on: KM12 colon
SK-MEL-28 melanoma = tested on: SK-MEL-28 melanoma
SW-620 colon = tested on: SW-620 colon
EKVX NSCLC = tested on: EKVX NSCLC
M14 melanoma = tested on: M14 melanoma
SK-MEL-2 melanoma = tested on: SK-MEL-2 melanoma
NCI-H23 lung = tested on: NCI-H23 lung
OVCAR-5 ovarian = tested on: OVCAR-5 ovarian
SF-295 CNS = tested on: SF-295 CNS
HS 578T breast = tested on: HS 578T breast
MCF7 breast = tested on: MCF7 breast
SN12C renal = tested on: SN12C renal
UACC-62 melanoma = tested on: UACC-62 melanoma
CAKI-1 renal = tested on: CAKI-1 renal
SF-268 CNS = tested on: SF-268 CNS
LOX IMVI melanoma = tested on: LOX IMVI melanoma
A549 NSCLC = tested on: A549 NSCLC
NCI-H226 lung = tested on: NCI-H226 lung
CCRF-CEM leukemia = tested on: CCRF-CEM leukemia
HOP-92 NSCLC = tested on: HOP-92 NSCLC
UO-31 renal = tested on: UO-31 renal
RXF 393 renal = tested on: RXF 393 renal
SNB-75 CNS = tested on: SNB-75 CNS
OVCAR-3 ovarian = tested on: OVCAR-3 ovarian
NCI/ADR-RES ovarian = tested on: NCI/ADR-RES ovarian
SR leukemia = tested on: SR leukemia
SNB-19 CNS = tested on: SNB-19 CNS
HT29 colon = tested on: HT29 colon

## CC[C@H](NC(=O)[C@H](CS(=O)(=O)CC1CC1)N[C@@H](c1ccc(F)cc1)C(F)(F)F)C(=O)C(=O)NC1CC1
HCT-15 colon
  GI50: > 100 µM
  TGI: > 100 µM
HOP-62 NSCLC
  GI50: > 100 µM
  TGI: > 100 µM
OVCAR-4 ovarian
  GI50: 82.9 µM
  TGI: > 100 µM
NCI-H522 lung
  GI50: > 100 µM
  TGI: > 100 µM
TK-10 renal
  GI50: > 100 µM
  TGI: > 100 µM
HL-60(TB) leukemia
  GI50: > 100 µM
  TGI: > 100 µM
U251 CNS
  GI50: > 100 µM
  TGI: > 100 µM
HCT-116 colon
  GI50: > 100 µM
  TGI: > 100 µM
HCC-2998 colon
  GI50: > 100 µM
  TGI: > 100 µM
PC-3 prostate
  GI50: > 100 µM
  TGI: > 100 µM
MDA-MB-435
  GI50: > 100 µM
  TGI: > 100 µM
COLO 205 colon
  GI50: > 100 µM
  TGI: > 100 µM
MOLT-4 leukemia
  GI50: 32.8 µM
  TGI: > 100 µM
RPMI-8226 leukemia
  GI50: > 100 µM
  TGI: > 100 µM
IGROV1 ovarian
  GI50: > 100 µM
  TGI: > 100 µM
T-47D breast
  GI50: > 100 µM
  TGI: > 100 µM
MDA-MB-231 breast
  GI50: 93.1 µM
  TGI: > 100 µM
BT-549 breast
  GI50: > 100 µM
  TGI: > 100 µM
DU-145 prostate
  GI50: > 100 µM
  TGI: > 100 µM
SK-MEL-5 melanoma
  GI50: > 100 µM
  TGI: > 100 µM
SK-OV-3 ovarian
  GI50: > 100 µM
  TGI: > 100 µM
786-0 renal
  GI50: > 100 µM
  TGI: > 100 µM
SF-539 CNS
  GI50: > 100 µM
  TGI: > 100 µM
A498 renal
  GI50: > 100 µM
  TGI: > 100 µM
NCI-H460 lung
  GI50: > 100 µM
  TGI: > 100 µM
MALME-3M melanoma
  GI50: > 100 µM
  TGI: > 100 µM
UACC-257 melanoma
  GI50: > 100 µM
  TGI: > 100 µM
K-562 leukemia
  GI50: > 100 µM
  TGI: > 100 µM
OVCAR-8 ovarian
  GI50: > 100 µM
  TGI: > 100 µM
ACHN renal
  GI50: > 100 µM
  TGI: > 100 µM
KM12 colon
  GI50: > 100 µM
  TGI: > 100 µM
SK-MEL-28 melanoma
  GI50: > 100 µM
  TGI: > 100 µM
SW-620 colon
  GI50: > 100 µM
  TGI: > 100 µM
EKVX NSCLC
  GI50: 90.3 µM
  TGI: > 100 µM
M14 melanoma
  GI50: > 100 µM
  TGI: > 100 µM
SK-MEL-2 melanoma
  GI50: > 100 µM
  TGI: > 100 µM
NCI-H23 lung
  GI50: > 100 µM
  TGI: > 100 µM
OVCAR-5 ovarian
  GI50: > 100 µM
  TGI: > 100 µM
SF-295 CNS
  GI50: > 100 µM
  TGI: > 100 µM
HS 578T breast
  GI50: > 100 µM
  TGI: > 100 µM
MCF7 breast
  GI50: 86.8 µM
  TGI: > 100 µM
SN12C renal
  GI50: > 100 µM
  TGI: > 100 µM
UACC-62 melanoma
  GI50: > 100 µM
  TGI: > 100 µM
CAKI-1 renal
  GI50: > 100 µM
  TGI: > 100 µM
SF-268 CNS
  GI50: > 100 µM
  TGI: > 100 µM
LOX IMVI melanoma
  GI50: > 100 µM
  TGI: > 100 µM
A549 NSCLC
  GI50: > 100 µM
  TGI: > 100 µM
NCI-H226 lung
  GI50: > 100 µM
  TGI: > 100 µM
CCRF-CEM leukemia
  GI50: > 100 µM
  TGI: > 100 µM
HOP-92 NSCLC
  GI50: 98.7 µM
  TGI: > 100 µM
UO-31 renal
  GI50: > 100 µM
  TGI: > 100 µM
RXF 393 renal
  GI50: > 100 µM
  TGI: > 100 µM
SNB-75 CNS
  GI50: > 100 µM
  TGI: > 100 µM
OVCAR-3 ovarian
  GI50: > 100 µM
  TGI: > 100 µM
NCI/ADR-RES ovarian
  GI50: > 100 µM
  TGI: > 100 µM
SR leukemia
  GI50: 98.4 µM
  TGI: > 100 µM
SNB-19 CNS
  GI50: > 100 µM
  TGI: > 100 µM
HT29 colon
  GI50: > 100 µM
  TGI: > 100 µM
